Measured values reported in patent US10300074B2, “Use of inhibitor of apoptosis protein (IAP) antagonists in HIV therapy” (Sanford-Burnham Medical Research Institute, priority 2014, dated 2019).

Key:
[1] = molecular target: XIAP BIR3 (Homo sapiens (Human), UniProt P98170); assay: XIAP BIR3 Ki; format: binding; settings: Table B-1
[2] = molecular target: ML-IAP (Homo sapiens (Human), UniProt Q96CA5); assay: ML-IAP Ki; format: binding; settings: Table B-1
[3] = molecular target: XIAP BIR1/2 (Homo sapiens (Human), UniProt P98170); assay: XIAP BIR1/2 Ki; format: binding; settings: Table B-1
[4] = tested on: latently infected JLat 10.6 cells; settings: for Reactivation of latent HIV (GFP reporter expression): single agent, 24 hours; for Activation of HIV transcription, combination versus components alone: in combination with Compound 35, 24 hours
[5] = tested on: HEK 293T cells infected with HIV-VSVg; format: cell-based
[6] = tested on: Latently infected Jurkat JLat 10.6 cells; settings: HDAC inhibitor in combination with Compound 35, 36 hours, normalized against background of HDAC inhibitor alone

Sequence of ML-IAP (Q96CA5 whole entry): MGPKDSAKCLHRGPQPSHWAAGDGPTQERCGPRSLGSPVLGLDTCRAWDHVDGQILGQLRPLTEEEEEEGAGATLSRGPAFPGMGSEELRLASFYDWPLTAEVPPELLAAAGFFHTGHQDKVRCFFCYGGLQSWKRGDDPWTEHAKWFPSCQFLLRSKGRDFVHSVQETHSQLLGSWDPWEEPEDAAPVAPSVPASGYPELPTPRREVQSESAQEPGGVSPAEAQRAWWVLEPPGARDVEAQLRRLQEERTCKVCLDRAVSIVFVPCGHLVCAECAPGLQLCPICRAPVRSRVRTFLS
Sequence of XIAP BIR3 (P98170 241-356): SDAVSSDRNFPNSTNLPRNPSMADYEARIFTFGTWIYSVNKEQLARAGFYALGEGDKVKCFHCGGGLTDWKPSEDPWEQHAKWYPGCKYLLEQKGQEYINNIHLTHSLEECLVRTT
Sequence of XIAP BIR1/2 (P98170 1-240): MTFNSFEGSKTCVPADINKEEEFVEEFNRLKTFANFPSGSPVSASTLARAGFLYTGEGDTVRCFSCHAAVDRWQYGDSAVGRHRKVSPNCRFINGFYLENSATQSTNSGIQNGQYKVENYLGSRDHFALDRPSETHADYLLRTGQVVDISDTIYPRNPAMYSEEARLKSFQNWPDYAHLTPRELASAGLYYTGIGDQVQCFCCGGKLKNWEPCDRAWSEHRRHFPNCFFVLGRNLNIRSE

| Structure (SMILES) | Ki [1] [µM] | Ki [2] [µM] | Ki [3] [µM] | Reactivation of latent HIV (GFP reporter expression) [4] | Viral gene transcription as measured by luciferase expression [5] | Activation of HIV transcription, combination versus components alone [4] | Group: increase of GFP+ cells [6] |
| --- | --- | --- | --- | --- | --- | --- | --- |
| CN[C@@H](C)C(=O)N[C@H]1CCS[C@H]2CCC(C(=O)N[C@@H]3CCCc4ccccc43)N2C1=O (stereo partly shown) [Compound 24] | ≤ 25 | ≤ 25 | > 50 | – | – | – | – |
| CN[C@@H](C)C(=O)N[C@H]1CCO[C@H]2CC(C)(C)[C@@H](C(=O)N[C@@H]3CCCc4ccccc43)N2C1=O [Compound 26] | ≤ 25 | ≤ 25 | ≤ 25 | – | – | – | – |
| CN[C@@H](C)C(=O)N[C@H]1CCO[C@H]2c3ccccc3C(C(=O)N[C@@H]3CCCc4ccccc43)N2C1=O (stereo partly shown) [Compound 27] | ≤ 25 | ≤ 25 | > 50 | – | – | – | – |
| CN[C@@H](C)C(=O)N[C@H]1CCO[C@H]2CC[C@@H](C(=O)N[C@@H]3CCOc4ccccc43)N2C1=O [Compound 32] | ≤ 25 | ≤ 25 | > 50 | – | – | – | – |
| CN[C@@H](C)C(=O)N[C@H]1CCO[C@H]2CC[C@@H](C(=O)N[C@@H]3CCCc4ccccc43)N2C1=O [Compound 33] | ≤ 25 | ≤ 25 | > 50 | – | – | – | – |
| CN[C@@H](C)C(=O)N[C@H]1CCS[C@H]2CC[C@@H](C(=O)N[C@@H]3CCCc4ccccc43)N2C1=O [Compound 34] | ≤ 25 | ≤ 25 | > 50 | – | – | – | – |
| CN[C@@H](C)C(=O)N[C@H]1CCS[C@H]2CC(C)(C)C(C(=O)N[C@@H]3CCCc4ccccc43)N2C1=O (stereo partly shown) [Compound 35] | ≤ 25 | ≤ 25 | ≤ 25 | caused reactivation of HIV | enhancement of viral gene transcription, as measured by luciferase expression, was proportional to the loss of BIRC2/cIAP1 protein | – | – |
| CN[C@@H](C)C(=O)N[C@H]1CCS[C@H]2CC[C@H](C(=O)N[C@@H]3CCCc4ccccc43)N2C1=O [Compound 36] | ≤ 25 | ≤ 25 | > 50 | – | – | – | – |
| CN[C@@H](C)C(=O)N[C@H]1CCO[C@H]2CC3(CC=CC3)C(C(=O)N[C@@H]3CCCc4ccccc43)N2C1=O (stereo partly shown) [Compound 42] | ≤ 25 | ≤ 25 | ≤ 25 | – | – | – | – |
| CN[C@@H](C)C(=O)N[C@H]1CC(=O)N[C@H]2CC(C)(C)C(C(=O)N[C@@H]3CCCc4ccccc43)N2C1=O (stereo partly shown) [Compound 46] | ≤ 25 | ≤ 25 | > 50 | – | – | – | – |
| CC(=O)NCCCCCCNC(C)=O [HMBA, hexamethylbisacetamide] | – | – | – | – | – | greater effect than treatment with any of the components alone | – |
| Cc1[nH]c2ccccc2c1CCNCc1ccc(/C=C/C(=O)NO)cc1 [Panobinostat, panobinostat] | – | – | – | – | – | greater effect than treatment with any of the components alone | – |
| CC[C@H](NC(=O)[C@H](C)NC)C(=O)N1C[C@@H](O)C[C@H]1Cc1c(-c2[nH]c3cc(F)ccc3c2C[C@@H]2C[C@H](O)CN2C(=O)[C@H](CC)NC(=O)[C@H](C)NC)[nH]c2cc(F)ccc12 [TL32711] | – | – | – | Reactivation of latent HIV in JLat 10.6 cells was achieved | – | – | – |
| O=C(CCCCCCC(=O)Nc1ccccc1)NO [Vorinostat, vorinostat] | – | – | – | – | – | greater effect than treatment with any of the components alone | A (A 0-25%) |
